Reference: PMC7018972, “Novel and selective inactivators of Triosephosphate isomerase with anti-trematode activity” (Scientific Reports, 2020)

target: Fasciola hepatica TIM (FhTIM) (Fasciola hepatica, UniProt S4UI50); test: Inhibition of recombinant FhTIM, coupled enzyme assay; assay type: biochemical; settings: not given
Procedure: Expression and purification of proteins: FhTIM, RabbitTIM and HsTIM were expressed in Escherichia coli and purified as described in the literature[31],[37]. […] Before use, extensive dialysis against 100 mM triethanolamine/10 mM EDTA (pH 7.4) was performed. […] Enzymatic activity was determined following the conversion of glyceraldehydes-3-phosphate into dihydroxyacetone phosphate in a coupled enzyme assay. The decrease in absorbance at 340 nm was followed in a multiplate reader VarioskanTM Flash Multimode Reader (Thermo ScientificTM, Waltham, MA, USA) at 38 °C. The reaction mixture (1 mL, pH 7.4) contained 100 mM triethanolamine, 10 mM EDTA, 0.2 mM NADH, 1 mM glyceraldehydes-3-phosphate and 0.9 units of α-glycerol phosphate dehydrogenase. The reaction was initiated by the addition of 5 ng/mL of the TIM of interest. For the inhibition studies, TIM was incubated at a concentration of 5 mg/mL in a buffer containing 100 mM triethanolamine, 10 mM EDTA, pH 7.4 and 10% of DMSO at 37 °C for 1 h. The mixture also contained the compounds, dissolved in DMSO, at the indicated concentrations. After 1 h, 10 µL were withdrawn and added to a final volume of 100 µL of the reaction mixture for the activity assay. The inhibition assay was performed in a 96-well microplate. […] The experiments were performed in triplicate in two independent experiments.

Chain of Fasciola hepatica TIM (FhTIM) (S4UI50 entry or part of it): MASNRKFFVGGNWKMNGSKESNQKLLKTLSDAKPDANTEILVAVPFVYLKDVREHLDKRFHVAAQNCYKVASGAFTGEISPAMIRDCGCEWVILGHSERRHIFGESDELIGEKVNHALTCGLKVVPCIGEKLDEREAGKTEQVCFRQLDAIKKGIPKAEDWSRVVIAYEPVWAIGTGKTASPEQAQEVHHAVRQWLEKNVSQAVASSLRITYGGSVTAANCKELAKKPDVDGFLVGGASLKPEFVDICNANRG

Row | SMILES | FhTIM inhibition in words
1 | Cc1ccc(-c2nsc(=O)[nH]2)cc1 [Compound 191] | non-inhibitor

same assay, conditions: Figure 1, ranges of inhibitory activity; read-out: IC50 range

Row | SMILES | IC50 [µM]
2 | O=C1C(=Cc2ccc([N+](=O)[O-])cc2)C(=O)N(Cc2ccccc2)S(=O)(=O)N1Cc1ccccc1 [Compound 111] | < 50
3 | [O-][n+]1c2ccc(O)cc2[n+]([O-])c2cc(Cl)c(Cl)cc21 [Compound 183] | < 50

same assay, conditions: Table 1S, screening of 340 compounds in FhTIM; table head prints no unit, µM per b8/b9

Row | SMILES | IC50 [µM]
4 | Clc1ccc(-c2c[se]c(=NN=CC=Cc3ccco3)n2CCN2CCOCC2)cc1 [Compound 1097] | 50 to 100

same assay, conditions: Table 1S, screening of 340 compounds in FhTIM; table head prints no unit, µM per b8/b9; read-out: IC50

Row | SMILES | IC50 [µM]
5 | CCCCOC(=O)c1nc2ccc([N+](=O)[O-])cc2n1O [Compound 550] | > 100
6 | NC1=NC(=O)N=C(N)C1=Cc1ccco1 [Compound 575] | 50 to 100
7 | CN1CC(=Cc2ccc(S(=O)(=O)O)o2)C(=O)C(=Cc2ccc(S(=O)(=O)O)o2)C1 [Compound 1286] | > 100
8 | Cc1ccc(C=CC=CC(C=CC=Cc2ccc(C)o2)=NN2CCN(CC=Cc3ccccc3)CC2)o1 [Compound 1102] | > 100
9 | O=[N+]([O-])c1ccc2c(c1)c(O)nn2CCOCCBr [Compound 517] | > 100
10 | O=C1CCCC2=C1C(c1ccc(C(=O)O)cc1)c1ccc3ccccc3c1N2 (stereo not shown) [Compound 698] | > 100
11 | CN(CC=Cc1ccccc1)Cc1ccc2c(c1)=[N+]([O-])C(C)(C)[N+]=2[O-] [Compound 499] | > 100
12 | Cc1nnc[n+]([O-])c1/C=C/c1ccc([N+](=O)[O-])s1 [Compound 361] | 100
13 | O=C1C(=Cc2ccccc2)CCCC1=Cc1ccccc1 [Compound 799] | 100
14 | C=CCn1c(C(=O)O)csc1=NN=Cc1ccc(S(=O)(=O)O)o1 [Compound 913] | > 100
15 | CN(C)CCCCCn1nc(O)c2cc([N+](=O)[O-])ccc21 [Compound 477] | > 100
16 | CC(=NN=c1[nH]c(C(=O)O)cs1)C1CCC2C3CC=C4CC(O)CCC4(C)C3CCC12C (stereo not shown) [Compound 1258] | > 100
17 | C=CCn1c(-c2ccc(OC)cc2)csc1=NN=CC=Cc1ccco1 [Compound 871] | > 100
18 | NC1=NS(=O)(=O)N=C(N)C1 [Compound 126] | 100
19 | [Se]=C(NCCN1CCOCC1)NN=CC=Cc1ccco1 [Compound 1147] | 50 to 100
20 | COc1nn(CCOCCN(C)CC=Cc2ccccc2)c2ccc([N+](=O)[O-])cc12 [Compound 504] | > 100
21 | O=C1C(=Cc2ccc([N+](=O)[O-])cc2)C(=O)N(Cc2ccccc2)S(=O)(=O)N1Cc1ccccc1 [Compound 111] | < 25
22 | Cc1nnc(C)[n+]([O-])c1C=Cc1ccc(N(C)C)cc1 [Compound 213] | > 100
23 | C=CCn1c(C(=O)N2CCN(CC=Cc3ccccc3)CC2)csc1=NN=CC=Cc1ccco1 [Compound 314] | > 100
24 | C=CCN1C(=O)CSC1=NN=C(C)[C@H]1CC[C@H]2[C@@H]3CC=C4CC(O)CC[C@]4(C)[C@H]3CC[C@]12C (stereo partly shown) [Compound 1125] | > 100
25 | C=CCNC(=S)NN=C(C=CC=Cc1ccc(C)o1)C=CC=Cc1ccc(C)o1 [Compound 900] | > 100
26 | O=C(C=CC=Cc1ccccc1)C=CC=Cc1ccccc1 [Compound 797] | > 100
27 | COc1ccc(C=O)cc1-c1cc(C=O)ccc1OC [Compound 237] | > 100
28 | CC(=O)Nc1ccc(C=NO)cc1 [Compound 1106] | > 100
29 | Cc1nnc[n+]([O-])c1/C=C/c1ccc(Cl)cc1 [Compound 211] | > 100
30 | CCOC(=O)On1c(C(=O)OCC)nc2ccc([N+](=O)[O-])cc21 [Compound 660] | > 100
31 | C=CCN(C(C)=O)C1=NN(C(C)=O)C(C=Cc2ccco2)S1 (stereo not shown) [Compound 285] | > 100

Row | SMILES | IC50 [µM]
32 | Cc1ccc(-c2cc(C(F)(F)F)nn2-c2ccc(S(N)(=O)=O)cc2)cc1 [Compound 1121] | > 100
33 | Cc1nnc[n+]([O-])c1C=Cc1ccc(N(C)C)cc1 [Compound 641] | > 100
34 | Brc1ccc(-c2c[se]c(=NN=CC=Cc3ccccc3)n2CCN2CCOCC2)cc1 [Compound 1222] | 50 to 100
35 | CN(CC=Cc1ccccc1)CCCCCn1nc(OCc2ccccc2)c2cc([N+](=O)[O-])ccc21 [Compound 507] | > 100
36 | O=C(/C=C/c1ccco1)N1CCN(C/C=C/c2ccccc2)CC1 [Compound 50] | > 100
37 | O=C1C(=Cc2ccco2)CCCC1=Cc1ccco1 [Compound 808] | > 100
38 | CCCN(CCCCCn1nc(OCc2ccccc2)c2cc([N+](=O)[O-])ccc21)CCC(C)C1CC=C(C)CC1 (stereo not shown) [Compound 199] | > 100
39 | O=C(NN=Cc1ccccc1O)c1ccc(Cl)cc1 [Compound 1249] | > 100
40 | [O-][n+]1onc2ccc(C=Cc3ccc4nonc4c3)cc21 [Compound 12] | > 100
41 | O=C(C=Cc1cccc2ccccc12)c1ccccc1 [Compound 1266] | > 100
42 | Cc1ccc(/C=C/C=C/C(=O)/C=C/C=C/c2ccc(C)o2)o1 [Compound 1108] | > 100
43 | C=CCNC(=S)NN=CC=Cc1ccc([N+](=O)[O-])s1 [Compound 142] | > 100
44 | C=CCn1c(-c2ccc(Cl)cc2)csc1=NN=CC=Cc1ccco1 [Compound 266] | > 100
45 | O=S(=O)(NCc1ccccc1)NCc1ccccc1 [Compound 119] | > 100
46 | COc1ccc(C=Cc2c(C)[n+]([O-])nc[n+]2[O-])cc1 [Compound 218] | > 100
47 | Nc1nc(-c2ccc([N+](=O)[O-])cc2)cs1 [Compound 1098] | > 100
48 | C=CCn1c(-c2ccc(Br)cc2)csc1=NN=C/C=C/c1cccs1 [Compound 1137] | 50 to 100
49 | CCOC(=O)c1n(Cc2ccc(N(C)C)cc2)c2ccc([N+](=O)[O-])cc2[n+]1[O-] [Compound 553] | > 100
50 | C=CCn1c(C(=O)CN2CCSCC2)csc1=NN=CC=Cc1ccco1 [Compound 1116] | > 100
51 | O=C1C(=CC=Cc2ccco2)CCC1=CC=Cc1ccco1 [Compound 1223] | 50 to 100
52 | [O-][N+]1=c2ccccc2=[N+]([O-])C12CCCC2 [Compound 633] | > 100
53 | C(=Cc1ccco1)C=NN=c1scc(-c2ccccc2)n1-c1ccccc1 [Compound 1132] | > 100
54 | C=CCn1c(-c2ccccc2)csc1=NN=Cc1ccc2ccccc2c1 [Compound 908] | 50 to 100
55 | C=CCn1c(-c2csc(=NN=Cc3ccccc3)n2-c2ccccc2)csc1=NN=Cc1ccc2ccccc2c1 [Compound 783] | > 100
56 | N#Cc1c2ccccc2[n+]([O-])n1CCCl [Compound 483] | > 100
57 | S=C(NN=Cc1cccs1)Nc1ccccc1 [Compound 279] | > 100
58 | Oc1ccccc1CN1N=Cc2ccccc2OB1F [Compound 1198] | > 100

Row | SMILES | IC50 [µM]
59 | COc1nn(CCOCCI)c2ccc([N+](=O)[O-])cc12 [Compound 514] | > 100
60 | NC1=NS(=O)(=O)N=C(N)C1N [Compound 723] | > 100
61 | O=C(NN=Cc1ccccc1O)c1ccccc1Cl [Compound 1250] | > 100
62 | COC(=O)NN=Cc1ccc2nonc2c1 [Compound 31] | > 100
63 | [O-][n+]1onc2ccc(CN3CCN(CC=Cc4ccccc4)CC3)cc21 [Compound 609] | > 100
64 | COc1ccc(CN2c3nc(-c4ccccc4OC)[nH]c3C(N)=NS2(=O)=O)cc1 [Compound 707] | > 100
65 | C=CCn1c(C(=O)O)csc1=NN=CC=Cc1cccs1 [Compound 1126] | > 100
66 | C=CCn1c(-c2csc(=NN=Cc3ccccc3)n2-c2ccccc2)csc1=NN=CC=Cc1ccco1 [Compound 782] | > 100
67 | C(=NN=c1scc(-c2ccccc2)n1-c1ccccc1)c1ccccc1 [Compound 270] | > 100
68 | O=C1CSC(=NN=Cc2ccc([N+](=O)[O-])s2)N1 [Compound 258] | > 100
69 | C=CCn1c(-c2ccc([N+](=O)[O-])cc2)csc1=NN=CC=Cc1ccc([N+](=O)[O-])s1 [Compound 131] | > 100
70 | C=CCn1c(C)csc1=NN=Cc1ccc2ccccc2c1 [Compound 904] | > 100
71 | CC(=O)N(C1=NN(C(C)=O)C(c2cccs2)S1)c1ccccc1 (stereo not shown) [Compound 284] | > 100
72 | O=C1CSC(=NN=CC=Cc2ccco2)N1c1ccccc1 [Compound 282] | > 100
73 | O=C1C(=Cc2cccs2)CCC1=Cc1cccs1 [Compound 1248] | > 100
74 | Cc1c(CNc2cccc3ccccc23)no[n+]1[O-] [Compound 172] | > 100
75 | CN1CC(=Cc2ccccc2)C(=O)C(=Cc2ccccc2)C1 [Compound 357] | > 100
76 | N#CSc1ccc(C=O)cc1[N+](=O)[O-] [Compound 670] | 100
77 | C=CCN1C(=O)C(CC(=O)O)SC1=NN=Cc1cccs1 (stereo not shown) [Compound 1139] | 50 to 100
78 | C=CCNC(=S)NN=Cc1ccnc2ccccc12 [Compound 308] | 50 to 100
79 | C=CCNC(=S)NN=CC=Cc1ccccc1 [Compound 300] | > 100
80 | O=C1CSC(=NN=Cc2ccc([N+](=O)[O-])s2)N1c1ccccc1 [Compound 262] | > 100
81 | O=C1C(=CC=Cc2ccccc2)CCCC1=CC=Cc1ccccc1 [Compound 800] | > 100
82 | O=C1CSC(=NN=Cc2cccs2)N1c1ccccc1 [Compound 293] | > 100
83 | Cc1ccc(-c2nsc(=O)[nH]2)cc1 [Compound 191] | > 100
84 | O=c1cc(O)n(Cc2ccccc2)c(=S)n1Cc1ccccc1 [Compound 1088] | > 100

same assay, conditions: recombinant FhTIM, 1 h incubation with compound at 37 °C; read-out: IC50

Row | SMILES | IC50 [µM]
85 | [O-][n+]1c2ccc(O)cc2[n+]([O-])c2cc(Cl)c(Cl)cc21 [Compound 183] | 25 ± 3
